Legend:
Colo205 cells = assay: MTT antiproliferative assay, sensitive cells; assay type: cell-based, human; conditions: for IC50: Homo sapiens, COLO 205, sensitive Colo205, MTT, 72 h, mean ± SD; for SI (selectivity index) C/A: IC50 MRC-5 / IC50 Colo205
Procedure: (§1) The human colon adenocarcinoma cell lines Colo205 doxorubicin-sensitive (CCL-222, ATCC, Manassas, VA, USA) and the resistant Colo320/MDR-LRP expressing P-gp were purchased from LGC Promochem (Teddington, UK). The MRC-5 human embryonal lung fibroblast cell line (CCL-171, ATCC) was purchased from Sigma-Aldrich (Merck KGaA, Darmstadt, Germany). The human colon adenocarcinoma cells (Colo205 and Colo320) were cultured in an RPMI 1640 medium supplemented with 10% fetal bovine serum (FBS), 2 mM L-glutamine, 1 mM Na-pyruvate, and 100 mM HEPES. The semi-adherent human colon cancer cells were detached with a trypsin-Versene (EDTA) solution for 5 min at 37 °C. The MRC-5 human embryonal lung fibroblast cells were cultured in EMEM containing 4.5 g/L of glucose and supplemented with a non-essential amino acid mixture, a selection of vitamins, and 10% FBS. The cell lines were incubated at 37 °C, 5% CO2, and 95% air atmosphere.
(§2) The antiproliferative effect of the compounds was tested in decreasing serial dilutions of compounds (starting with 100 µM, then two-fold serial dilution) on human cell lines (Colo205, Colo320, and MRC-5) in 96-well flat-bottomed microtiter plates. Firstly, the compounds were diluted in 100 µL of the medium, and then 6 × 10^3 cells (Colo205 and Colo320), in 100 µL of medium, were added to each well, excluding the medium control wells. The MRC-5 adherent cell line was seeded in the EMEM medium for at least 4 h before the assay. The two-fold serial dilutions of the compounds were made in a separate plate (100–0.19 μM) and then transferred to the plates containing the adherent corresponding cell line. Culture plates were incubated at 37 °C for 72 h, and at the end of the incubation period, 20 μL of MTT (thiazolyl blue tetrazolium bromide) solution (from a 5 mg/mL stock solution) was added to each well and incubated for an additional 4 h. Then, 100 μL of sodium dodecyl sulfate (SDS) solution (10% SDS in 0.01 M HCl) was added to each well, and the plates were further incubated at 37 °C overnight in a CO2 incubator. Cell growth was determined by measuring the optical density (OD) at 540/630 nm with a Multiscan EX ELISA reader (Thermo Labsystems, Cheshire, WA, USA). […] IC50 values and the standard deviation (SD) of triplicate experiments were calculated by using GraphPad Prism 5 software for Windows. Doxorubicin (2 mg/mL, Teva Pharmaceuticals, Budapest, Hungary) was used as a positive control and the vehicle DMSO as the negative control. (1) IC50=[ODsample−ODmedium control/ODcell control−ODmedium control]×100
(§3) The relative resistance (RR) was calculated as the ratio of the IC50 value in the resistant cancer cells and the IC50 in the sensitive cancer cell lines. The selectivity indexes (SI) were calculated as the ratio of the IC50 values in the non-tumor cells and the IC50 in the cancer cell lines. The activity of the compounds toward cancer cells is considered strongly selective if the selectivity index (SI) value is higher than 6, moderately selective if 3 < SI < 6, slightly selective if 1 < SI < 3, and non-selective if SI is lower than 1.

Colo320 cells [1] = assay: MTT antiproliferative assay, resistant cells; assay type: cell-based, human; conditions: for IC50: Homo sapiens, COLO 320, resistant Colo320, MTT, 72 h, mean ± SD, read-out: IC50 Colo320 (B); for SI (selectivity index) C/B: IC50 MRC-5 / IC50 Colo320; for RR (relative resistance ratio) B/A: IC50 resistant Colo320 / IC50 sensitive Colo205
Procedure: as §1, §2, §3

MRC-5 cells = assay: MTT antiproliferative assay, normal lung fibroblasts; assay type: cell-based; conditions: Homo sapiens, normal embryonal lung fibroblasts, 72 h, mean ± SD, read-out: IC50 MCR-5 (C)
Procedure: as §1, §2, §3

Colo320 cells [2] = assay: Checkerboard drug combination assay with doxorubicin; assay type: cell-based, human; conditions: for Type of interaction: Colo320; for CI at IC50 (combination index): Colo320, 50% growth inhibition
Procedure: The interaction of lycorine (1) and some selected derivatives (2, 5, 9, 13, 16, 19, 25, and 26) in combination with the chemotherapeutic drug doxorubicin was performed by the checkerboard assay, a widely used technique for assessing drug interactions, in resistant human Colo320 colon adenocarcinoma cells. The type of drug–drug interaction was evaluated by using the Chou and Talalay method for drug combination and expressed using the combination index (CI) values, and therefore evaluated as synergism (CI < 1), additive (CI = 1), or antagonist (CI > 1).
Drug combination interactions between the compounds and the chemotherapeutic drug doxorubicin were assessed by the checkboard microplate assay on the resistant Colo320, expressing the P-gp transporter. Doxorubicin was serially diluted in the horizontal direction in 100 µL, starting with 8.6 µM, and the compounds were subsequently diluted in the vertical direction in 50 µL. The starting concentration was determined based on the IC50 values. The cells were resuspended in a culture medium and distributed into each well in 50 µL, containing 6 × 10^3 cells, to a final volume of 200 µL per well. The plates were incubated for 72 h at 37 °C in a CO2 incubator, and the cell growth was determined by the MTT staining method, as described previously. Drug interactions were evaluated using CompuSyn software to plot 4 or 5 data points for each ratio (ref software). The results were expressed in terms of combination index (CI) values of 50% growth inhibition, in which a CI value close to 1 indicates additivity, while a CI < 1 is defined as synergy, and a CI > 1 as antagonism.

[3] = target: T1, recombinant human P-gp membranes (Homo sapiens, UniProt P08183); assay: P-gp-Glo ATPase activity assay; assay type: biochemical; conditions: 25 µM, basal activity = 100%
T1 construct: purchased Promega
T1 sequence (P08183 whole entry): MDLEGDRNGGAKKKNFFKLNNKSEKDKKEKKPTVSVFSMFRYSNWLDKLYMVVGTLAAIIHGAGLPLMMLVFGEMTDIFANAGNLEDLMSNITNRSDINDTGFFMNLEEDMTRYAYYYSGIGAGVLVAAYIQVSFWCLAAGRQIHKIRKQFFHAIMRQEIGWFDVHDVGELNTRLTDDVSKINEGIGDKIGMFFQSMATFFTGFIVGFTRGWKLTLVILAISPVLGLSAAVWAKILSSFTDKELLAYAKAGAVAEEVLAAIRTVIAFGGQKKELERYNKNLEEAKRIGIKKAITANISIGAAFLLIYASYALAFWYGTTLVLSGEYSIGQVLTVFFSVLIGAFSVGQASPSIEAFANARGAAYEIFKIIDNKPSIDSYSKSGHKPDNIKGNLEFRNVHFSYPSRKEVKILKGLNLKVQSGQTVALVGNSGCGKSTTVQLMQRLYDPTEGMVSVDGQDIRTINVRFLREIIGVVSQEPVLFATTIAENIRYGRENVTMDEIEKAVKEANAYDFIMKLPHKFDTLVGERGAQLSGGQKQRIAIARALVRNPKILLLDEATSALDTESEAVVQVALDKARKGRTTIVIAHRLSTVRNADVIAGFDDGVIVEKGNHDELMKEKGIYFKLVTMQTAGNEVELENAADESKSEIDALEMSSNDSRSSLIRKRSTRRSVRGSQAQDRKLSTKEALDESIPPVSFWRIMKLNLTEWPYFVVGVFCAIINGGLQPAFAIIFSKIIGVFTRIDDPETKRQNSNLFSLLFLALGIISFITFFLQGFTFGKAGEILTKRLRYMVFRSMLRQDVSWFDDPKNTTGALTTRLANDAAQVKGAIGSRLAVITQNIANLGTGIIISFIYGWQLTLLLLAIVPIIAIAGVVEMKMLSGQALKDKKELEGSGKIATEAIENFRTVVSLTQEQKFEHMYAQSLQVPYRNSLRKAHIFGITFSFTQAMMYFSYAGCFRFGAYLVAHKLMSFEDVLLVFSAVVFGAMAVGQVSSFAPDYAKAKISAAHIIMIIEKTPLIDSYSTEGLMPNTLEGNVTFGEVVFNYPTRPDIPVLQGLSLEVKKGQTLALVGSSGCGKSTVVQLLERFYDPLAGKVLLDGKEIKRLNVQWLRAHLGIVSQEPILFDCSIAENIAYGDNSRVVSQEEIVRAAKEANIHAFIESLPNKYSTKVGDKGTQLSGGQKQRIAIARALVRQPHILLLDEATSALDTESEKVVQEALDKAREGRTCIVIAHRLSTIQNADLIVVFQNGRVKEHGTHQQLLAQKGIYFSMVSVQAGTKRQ
Procedure: To evaluate the type of interaction between selected compounds and P-gp, namely to determine if they interacted as stimulators or inhibitors, the ATPase activity assay (P-gp.Glo^TM) was performed, using human P-gp membranes. This assay is based on the ATP consumption necessary for the efflux, obtained from ATP hydrolysis by light-generating firefly luciferase reaction. […] Vanadate is a selective and strong P-gp inhibitor. Therefore, the compounds can be classified as inhibitors or stimulators/substrates by comparing P-gp ATPase activity with the basal activity; stimulators give results higher than 100%, while inhibitors result below 100% of the basal activity. […] The results are presented in Figure 2 as the difference between the luciferase luminescence observed when treated with the tested compounds and with vanadate and compared with the basal activity (100%).
The P-glycoprotein ATPase assay was assessed using the P-gp-Glo^TM Assay System (Promega, WI, USA). The assay was performed according to the manufacturer’s instructions. Briefly, 20 µL of recombinant human P-gp membranes (1.25 mg/mL), expressing high levels of human P-gp, were incubated in 20 µL of P-gp-Glo^TM assay buffer for 5 min at 37 °C. […] The reaction was initiated by adding 10 µL of 25 mM MgATP, and incubated at 37 °C for 40 min. The reaction was stopped after adding 50 µL of ATP Detection Reagent, and the samples and controls were incubated at room temperature for 20 min. The emitted luciferase-generated luminescent signal was measured in a CLARIOstar Plus plate reader (BMG Labtech, Ortenberg, Germany) at 580 nm. The relative ATPase activity was calculated based on the ratio between the luminescence measured of the P-gp ATPase activity of each compound and the basal P-gp ATPase activity according to Equation (3): (3) Relative ATPase activity= Lumtreated−Lumuntreated /LumNa3VO4/Lumuntreated

Compound | IC50 (Colo205 cells) | SI (selectivity index) C/A (Colo205 cells) | IC50 (Colo320 cells [1]) | SI (selectivity index) C/B (Colo320 cells [1]) | IC50 (MRC-5 cells) | Type of interaction (Colo320 cells [2]) | CI at IC50 (combination index) (Colo320 cells [2]) | RR (relative resistance ratio) B/A (Colo320 cells [1]) | Effect on basal P-gp ATPase activity [3]
O=C(OC1C=C2CCN3Cc4cc5c(cc4C(C1OC(=O)N1CCCCC1)C23)OCO5)N1CCCCC1 (stereo not shown) [Compound 16, Lycorine 1,2-diyl bis(piperidine-1-carboxylate)] | 55.4 ± 1.63 µM | 1.06 | 26.6 ± 1.37 µM | 2.22 | 59.2 ± 4.82 µM | Synergism | 0.57 | – | –
O[C@H]1[C@H]2c3cc4c(cc3CN3CCC(=C[C@@H]1O)[C@H]23)OCO4 [Compound 1, lycorine] | 1.06 ± 0.02 µM | 2.86 | 0.93 ± 0.01 µM | 3.26 | 3.04 ± 0.11 µM | Moderate antagonism | – | 0.87 | –
O=C(OC1C=C2CCN3Cc4cc5c(cc4C(C1O)C23)OCO5)N1CCc2ccccc2C1 (stereo not shown) [Compound 13, Lycorine 2-yl 3,4-dihydroisoquinoline-2(1H)-carboxylate] | 96.26 ± 0.33 µM | – | 78 ± 3.82 µM | – | > 100 µM | Synergism | 0.69 | – | –
Cc1ccc(CNC(=O)OC2C=C3CCN4Cc5cc6c(cc5C(C2OC(=O)NCc2ccc(C)cc2)C34)OCO6)cc1 (stereo not shown) [Compound 5, Lycorine 1,2-diyl bis[(4-methylbenzyl)carbamate]] | > 100 µM | <0.057 | 32.7 ± 0.62 µM | 0.17 | 5.75 ± 0.47 µM | Strong synergism | 0.13 | – | decreased the basal activity
O=C(NCc1ccc(Cl)cc1)OC1C=C2CCN3Cc4cc5c(cc4C(C1O)C23)OCO5 (stereo not shown) [Compound 2, Lycorine 2-yl (4-chlorobenzyl)carbamate] | 19.3 ± 0.87 µM | 3.01 | 40.4 ± 1.9 µM | 1.44 | 58.1 ± 0.83 µM | Slight synergism | 0.88 | 2.09 | decreased the basal activity
O=C(NCCc1ccc(Cl)cc1)OC1C=C2CCN3Cc4cc5c(cc4C(C1O)C23)OCO5 (stereo not shown) [Compound 26, Lycorine 2-yl (4-chlorophenethyl) carbamate] | 53.9 ± 0.98 µM | 0.96 | 37.9 ± 1.37 µM | 1.37 | 52.1 ± 3.09 µM | Slight synergism | 0.88 | – | decreased the basal activity
O=C(NCCc1ccccc1)OC1C=C2CCN3Cc4cc5c(cc4C(C1OC(=O)NCCc1ccccc1)C23)OCO5 (stereo not shown) [Compound 9, Lycorine 1,2-diyl bis(phenethylcarbamate)] | > 100 µM | <0.045 | 10.4 ± 0.28 µM | 0.43 | – | Synergism | 0.56 | <0.10 | decreased the basal activity
CC(C)(C)c1ccc(CNC(=O)OC2C=C3CCN4Cc5cc6c(cc5C(C2O)C34)OCO6)cc1 (stereo not shown) [Compound 19, Lycorine 2-yl [4-(tert-butyl)benzyl]carbamate] | 26.5 ± 0.476 µM | 1.63 | 7.64 ± 0.15 µM | 5.66 | 43.3 ± 0.75 µM | Slight synergism | 0.88 | 0.28 | decreased the basal activity
O=C(NCCc1ccc(Cl)cc1)OC1C=C2CCN3Cc4cc5c(cc4C(C1OC(=O)NCCc1ccc(Cl)cc1)C23)OCO5 (stereo not shown) [Compound 25, Lycorine 1,2-diyl bis[(4-chlorophenethyl)carbamate]] | 47.7 ± 1.35 µM | 0.099 | 3.14 ± 0.05 µM | 1.51 | 4.75 ± 0.08 µM | Synergism | 0.50 | 0.065 | decreased the basal activity
